The target of one assay is T1, Tyk2 (Homo sapiens, UniProt P29597).
T1 construct: purchased Invitrogen
The assay is described as follows: Tyk2 enzyme inhibition test (LANCE method). It is filed as biochemical. Particulars: compound 1 μM; Tyk2 (Invitrogen), ULight-JAK1 substrate, ATP; well without enzyme = 100% inhibition; read-out: Tyk2 enzyme inhibitory activity (%, 1 μM). On the procedure:
Tyk2 enzyme inhibitory activity of test compounds was measured by LANCE method (PerkinElmer). First, a test compound diluted with assay buffer (50 mM HEPES (pH=7.5), […], 1 mM EGTA, 2 mM DTT, 0.01% Tween20, 0.01% BSA) was added to 384-well plate at 2 μL each. Then, a Tyk2 (Invitrogen) solution and a fluorescence-labeled peptide substrate (ULight-JAK1, PerkinElmer) solution diluted with assay buffer at 375 ng/mL and 300 nM, respectively were added at 2 μL each. Then, enzyme reaction was started by adding 2 μL each of ATP solution prepared with assay buffer at 30 μM. After the reaction at room temperature for 1 hr, Detection Buffer (PerkinElmer) prepared to be 20 mM EDTA, 4 nM europium-labeled anti-phosphotyrosine antibody (PerkinElmer) was added at 6 μL each. After standing at room temperature for 1 hr, fluorescence intensity (excitation wavelength 340 nm, fluorescence wavelength 665 nm, delay time 100 microsecond) was measured by a plate reader, Envision (PerkinElmer). The inhibitory activity of each compound was calculated as relative value where fluorescence intensity of a well without enzyme is considered as 100% inhibition.
(In general: Time-resolved FRET reads energy transfer from a long-lived donor to a nearby acceptor.)

A further assay deals with IL-23. The assay is described as follows: IL-23-induced IL-22 in rat auricle tissue. Format: in vivo. The settings on record: 10 mg/kg, q.d., oral, 30 min before intradermal mouse IL-23 into right auricle; IL-22 in auricle tissue by ELISA about 24 hr later; mean of n=6. On the procedure: Recombinant mouse IL-23 (1 μg/20 μL/site) was intradermally administered into the right auricle of 7-8-week-old LEWEIS male rat. As control, phosphate buffered saline (PBS) which is a solvent was administered instead of IL-23. Then, a drug (the compound of Example 103) suspended in 0.5% methyl cellulose (MC) was orally administered 30 min before IL-23 administration, respectively. 0.5% MC was used as vehicle. The auricle tissues of 6 mm diameter were collected about 24 hr after IL-23 administration. Lysis buffer was added thereto, the tissues were crushed using beads, and centrifugalized, and the supernatant was collected. IL-22 in the tissues was measured using ELISA kit (R & D Systems). The result is shown below as a IL-23 inhibitory rate relative to vehicle. (mean of n=6)

The source of these data is patent US9187453B2, “Heterocyclic compound” (Takeda Pharmaceutical Company Limited, priority 2012, dated 2015).

Where a name gives a salt, the structure may show the parent alone.

T1 sequence (P29597 whole entry): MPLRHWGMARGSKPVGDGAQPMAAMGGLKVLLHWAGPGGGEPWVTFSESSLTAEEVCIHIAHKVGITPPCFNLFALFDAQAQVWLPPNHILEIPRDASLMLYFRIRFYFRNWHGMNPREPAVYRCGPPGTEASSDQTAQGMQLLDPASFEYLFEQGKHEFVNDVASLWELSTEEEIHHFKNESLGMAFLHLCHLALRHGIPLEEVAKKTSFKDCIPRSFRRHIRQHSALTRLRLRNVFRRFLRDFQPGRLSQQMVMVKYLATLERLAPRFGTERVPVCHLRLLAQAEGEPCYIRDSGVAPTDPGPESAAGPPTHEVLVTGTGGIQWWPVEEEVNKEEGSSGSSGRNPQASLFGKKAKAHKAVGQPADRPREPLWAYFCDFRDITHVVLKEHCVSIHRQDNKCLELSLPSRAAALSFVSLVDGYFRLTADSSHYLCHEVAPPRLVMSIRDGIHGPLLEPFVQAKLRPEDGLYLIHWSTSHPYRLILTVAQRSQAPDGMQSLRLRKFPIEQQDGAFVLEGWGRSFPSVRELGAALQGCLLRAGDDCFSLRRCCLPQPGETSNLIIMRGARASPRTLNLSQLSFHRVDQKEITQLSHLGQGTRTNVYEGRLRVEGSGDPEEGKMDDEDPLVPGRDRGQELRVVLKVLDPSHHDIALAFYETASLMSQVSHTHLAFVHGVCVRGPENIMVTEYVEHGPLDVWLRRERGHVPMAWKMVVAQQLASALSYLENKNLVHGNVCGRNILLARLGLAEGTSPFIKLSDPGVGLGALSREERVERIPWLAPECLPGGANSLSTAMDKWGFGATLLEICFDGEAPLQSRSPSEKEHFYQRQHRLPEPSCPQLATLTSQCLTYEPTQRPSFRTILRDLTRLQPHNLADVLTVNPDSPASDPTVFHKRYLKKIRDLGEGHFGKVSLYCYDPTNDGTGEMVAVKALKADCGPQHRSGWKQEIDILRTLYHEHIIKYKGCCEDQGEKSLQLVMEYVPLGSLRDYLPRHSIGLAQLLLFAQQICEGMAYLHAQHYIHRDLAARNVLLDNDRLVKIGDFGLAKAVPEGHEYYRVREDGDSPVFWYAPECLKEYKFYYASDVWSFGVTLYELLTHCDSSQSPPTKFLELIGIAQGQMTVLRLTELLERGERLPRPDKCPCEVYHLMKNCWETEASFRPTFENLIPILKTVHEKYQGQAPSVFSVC

As for `CCC1(C#N)CCN(c2ccnc(Nc3cnn(C)c3)n2)C1=O` (centres unmarked) [Example 1, 3-ethyl-1-(2-((1-methyl-1H-pyrazol-4-yl)amino)pyrimidin-4-yl)-2-oxopyrrolidine-3-carbonitrile], the inhibition at 1 µM at Tyk2 came out at 99%.
Same read-out and setting: the figure for `CC[C@]1(C#N)CCN(c2ccnc(Nc3ccc(N4CCOCC4)cc3)n2)C1=O` [Example 4, (3R)-3-ethyl-1-(2-((4-(morpholin-4-yl)phenyl)amino)pyrimidin-4-yl)-2-oxopyrrolidine-3-carbonitrile] is 100%; for `CC(C)[C@]1(C#N)CCN(c2ccnc(Nc3ccc(N4CCOCC4)cc3)n2)C1=O` [Example 7, (3S)-3-isopropyl-1-(2-((4-(morpholin-4-yl)phenyl)amino)pyrimidin-4-yl)-2-oxopyrrolidine-3-carbonitrile] it is 100%.
On the same count and under the same terms, the figure for `CCC1(CC)CCN(c2ccnc(Nc3cnn(C)c3)n2)C1=O` [Example 10, 3,3-diethyl-1-(2-((1-methyl-1H-pyrazol-4-yl)amino)pyrimidin-4-yl)pyrrolidin-2-one hydrochloride] is 97%; for `Cn1cc(Nc2nccc(N3CCCC3=O)n2)cn1` [Example 12, 1-(2-((1-methyl-H-pyrazol-4-yl)amino)pyrimidin-4-yl)pyrrolidin-2-one] it is 51%; for `CCC1(CC)CCN(c2ccnc(Nc3ccccc3)n2)C1=O` [Example 15, 1-(2-anilinopyrimidin-4-yl)-3,3-diethylpyrrolidin-2-one] it is 89%.
For `Cn1cc(Nc2ncc(F)c(N3CCC(C)(C)C3=O)n2)cn1` [Example 29, 1-(5-fluoro-2-((1-methyl-1H-pyrazol-4-yl)amino)pyrimidin-4-yl)-3,3-dimethylpyrrolidin-2-one], at Tyk2, the inhibition at 1 µM was found to be 91%.
As for `CCC1(CC#N)CCN(c2ccnc(Nc3cnn(C)c3)n2)C1=O` (centres unmarked) [Example 31, (3-ethyl-1-(2-((1-methyl-1H-pyrazol-4-yl)amino)pyrimidin-4-yl)-2-oxopyrrolidin-3-yl)acetonitrile], on Tyk2, the inhibition at 1 µM stood at 98%.
On the same count and under the same terms, the figure for `CCC1(CC)CC(C)N(c2ccnc(Nc3cnn(C)c3)n2)C1=O` (centres unmarked) [Example 33, 3,3-diethyl-5-methyl-1-(2-((1-methyl-1H-pyrazol-4-yl)amino)pyrimidin-4-yl)pyrrolidin-2-one hydrochloride] is 97%; for `CCC1(C#N)CCN(c2ccnc(NCc3ccc(C#N)cc3)n2)C1=O` (centres unmarked) [Example 61, 1-(2-((4-cyanobenzyl)amino)pyrimidin-4-yl)-3-ethyl-2-oxopyrrolidine-3-carbonitrile] it is 14%; for `CCC1(C#N)CCN(c2ccnc(NCc3ccco3)n2)C1=O` (centres unmarked) [Example 72, 3-ethyl-1-(2-((2-furylmethyl)amino)pyrimidin-4-yl)-2-oxopyrrolidine-3carbonitrile] it is 20%.
As for `CCC1(C#N)CCN(c2ccnc(NCC3CC3)n2)C1=O` (centres unmarked) [Example 77, 1-(2-((cyclopropylmethyl)amino)pyrimidin-4-yl)-3-ethyl-2-oxopyrrolidine-3-carbonitrile], the inhibition at 1 µM on Tyk2 stood at 22%.
`CC(C)[C@]1(C#N)CCN(c2ccnc(Nc3cnn(CC(N)=O)c3)n2)C1=O` [Example 85, 2-(4-((4-((3S)-3-cyano-3-isopropyl-2-oxopyrrolidin-1-yl)pyrimidin-2-yl)amino)-1H-pyrazol-1-yl)acetamide hydrochloride]: the inhibition at 1 µM on Tyk2 turned out to be 100%.
For `CNC(=O)Cn1cc(Nc2nccc(N3CC[C@@](C#N)(C(C)C)C3=O)n2)cn1` [Example 86, 2-(4-((4-((3S)-3-cyano-3-isopropyl-2-oxopyrrolidin-1-yl)pyrimidin-2-yl)amino)-1H-pyrazol-1-yl)-N-methylacetamide hydrochloride], the inhibition at 1 µM on Tyk2 was 100%.
The same measure, in the same setting: the figure for `CC(C)[C@]1(C#N)CCN(c2ccnc(Nc3cnn(CC(=O)N(C)C)c3)n2)C1=O` [Example 87, 2-(4-((4-((3S)-3-cyano-3-isopropyl-2-oxopyrrolidin-1-yl)pyrimidin-2-yl)amino)-1H-pyrazol-1-yl)-N,N-dimethylacetamide hydrochloride] is 100%; for `Cn1cc(Nc2nccc(N3CCCC(C)(C)C3=O)n2)cn1` [Example 101, 3,3-dimethyl-1-(2-((1-methyl-1H-pyrazol-4-yl)amino)pyrimidin-4-yl) piperidin-2-one hydrochloride] it is 88%.
`CC(C)(CO)n1cc(Nc2nccc(N3CC[C@@](C#N)(C4CC4)C3=O)n2)cn1` [Example 103, (3S)-3-cyclopropyl-1-(2-((1-(1-hydroxy-2-methylpropan-2-yl)-1H-pyrazol-4-yl)amino)pyrimidin-4-yl)-2-oxopyrrolidine-3-carbonitrile]: the inhibition at 1 µM at Tyk2 came to 100%. Further, the “IL-23 inhibitory rate relative to vehicle” value with IL-23 turned out to be 79%.
For the compound `CC(C)(C(N)=O)n1cc(Nc2nccc(N3CC[C@@](C#N)(C4CC4)C3=O)n2)cn1` [Example 109, 2-(4-((4-((3S)-3-cyano-3-cyclopropyl-2-oxopyrrolidin-1-yl)pyrimidin-2-yl)amino)-1H-pyrazol-1-yl)-2-methylpropanamide hydrochloride], on Tyk2, the inhibition at 1 µM is 99%.
Same read-out and setting: the figure for `N#C[C@@]1(C2CC2)CCN(c2ccnc(Nc3cnn(C4(CO)CC4)c3)n2)C1=O` [Example 128, (3S)-3-cyclopropyl-1-(2-((1-(1-(hydroxymethyl)cyclopropyl)-1H-pyrazol-4-yl)amino)pyrimidin-4-yl)-2-oxopyrrolidine-3-carbonitrile] is 100%.
With `CNC(=O)Cn1cc(Nc2nccc(N3CC[C@](C#N)(C4CC4)C3=O)n2)cn1` [Example 133, 2-(4-((4-((3R)-3-cyano-3-cyclopropyl-2-oxopyrrolidin-1-yl)pyrimidin-2-yl)amino)-1H-pyrazol-1-yl)-N-methylacetamide hydrochloride], the inhibition at 1 µM at Tyk2 came out at 24%.
On the same count and under the same terms, the figure for `CNC(=O)Cn1cc(Nc2nccc(N3CC[C@@](C#N)(C4CC4)C3=O)n2)cn1` [Example 134, 2-(4-((4-((3S)-3-cyano-3-cyclopropyl-2-oxopyrrolidin-1-yl)pyrimidin-2-yl)amino)-1H-pyrazol-1-yl)-N-methylacetamide hydrochloride] is 99%; for `CC(C)[C@]1(C#N)CCN(c2ccnc(Nc3cnn(CCC(=O)N(C)C)c3)n2)C1=O` [Example 265, 3-(4-((4-((3S)-3-cyano-3-isopropyl-2-oxopyrrolidin-1-yl)pyrimidin-2-yl)amino)-1H-pyrazol-1-yl)-N,N-dimethylpropanamide] it is 99%.
